In assay [1] the test system is p53 protein expression in HCT116 cells. Put plainly: Western blot of p53 protein in parental HCT116 cells. Format: cell-based, human. The settings on record: FIG. 2A. As for the experimental part: (§1) Cells were collected and protein concentration was quantified by the Bio-Rad protein assay prior to SDS-PAGE. Proteins were transferred to a PVDF membrane (Immobilon-P, Millipore Corporation, Bedford, Mass.) by a semi-dry transfer apparatus (Bio-Rad Laboratories, Hercules, Calif.). The membranes with transferred proteins were blotted with 10% W/V non-fat dry milk and then incubated with the primary antibody and subsequently secondary antibodies, which were labelled by horseradish peroxidase, or infrared dyes (IR). Signals were visualized by either ECL (Amersham Pharmacia Biotech, England, UK) and exposed to an X-ray film, or scanned by the Odyssey Infared Imaging System (LI-COR Biosciences, Lincoln, Nebr.). Anti-p53, DO-1, was from Santa Cruz biotechnology, Inc. (Santa Cruz, Calif.), anti-p73 (AB-1) and anti-p21 (AB-1) were obtained from Calbiochem (San Diego, Calif.). Anti-ser20 of p53 Cell were obtained from Signaling Technology (Danvers, Mass.) and anti-DR5 antibody was obtained from Cayman Chemical (Ann Arbor, Mich.).
(§2) The chemical library screening was directed at restoring “p53 responses” in p53-deficient cells. The small molecules identified by the cell-based screening procedure appeared to be able to restore p53 responses in p53-deficient colon tumors and to eliminate viable cells. Their function was further tested on wild-type p53-expressing and p53-knockout HCT116 colon adenocarcinoma cell lines. A number of candidate modulators of signaling by the p53 family appeared to induce expression of p53 target genes such as p21 or DR5(13) either with or without stabilizing p53 protein in HCT116 cells (FIG. 2A).

Assay [2] has as its system HCT116/p53^−/− cells. Nature of the assay: Flow cytometry cell cycle profile, HCT116/p53(-/-). Format: cell-based, human. The conditions noted are these: for sub-G1 peak (apoptosis): HCT116/p53^−/−, #17 200 μM, #23 10 μM. The method, then:
(§3) FIGS. 3A-3F show: Structures (A) of isolated compounds and summary of their effects on the p53 family and transcriptional targets (B). Cell cycle profiles of HCT/p53(+/+) and HCT/p53(−/−) in response to treatment by selected compounds (C-E). The dose of #17 was 200 μM and for #23 it was 10 μM. F, p73 protein levels were elevated in HCT116/p53(−/−) cells in response to treatment by selected compounds at various concentrations as indicated;
(§4) Adherent cells in a 6-well plate were trypsinized and collected in 15 ml centrifuge tubes to which were added the originally floating cells. The collected cells were ethanol-fixed and stained with propidium iodide (Sigma, St. Louis, Mo.). The DNA content of the stained cells was then measured using an Epics Elite flow cytometer (Beckman-Coulter, Fullerton, Calif.).
(§5) The ability of selected compounds from the chemical library screen to induce apoptosis of human colon tumor cells and the dependence of their effects on endogenous p53 status was further evaluated.
Background: In flow cytometry, cells or beads pass a laser one at a time.

In assay [3] the test system is DR5 and p21 in HCT116/p53(+/+) cells. Nature of the assay: Western blot of p53 target genes DR5 and p21 in HCT116/p53(+/+) cells. Format: cell-based, human. The settings on record: parental HCT116 (p53+/+) cells, FIG. 2A. As for the experimental part:
(§6) FIGS. 2A-2B show protein levels of p53 target genes p21 and DR5 were induced by selected compounds in HCT/p53(+/+) cells (A) or HCT/p53(−/−) cells (B). In A, doses of compounds (μM) are listed above each lane. Cells treated with compounds were harvested and lysed for SDS-PAGE and immunoblotted with p21 or DR5 antibodies. Ran was used as a protein loading control. Doses of compounds in B were as follows: 2 μM for #15, 12 μM for #1 and #23, 20 μM for #20 and #32, 100 μM for #33, 200 μM for #5, #8, #12, #16, #17, and #22, and 400 μM for #3. The dose for adriamycin was 0.2 μg/ml. Cells were incubated for 16 hours at 37° C. with the various drugs prior to cell harvest;
as §1, §2
A general note: In western blotting, separated proteins are transferred to a membrane and probed.

Assay [4] has as its system HCT116/p53^+/+ cells. Nature of the assay: Flow cytometry cell cycle profile, HCT116/p53(+/+). Format: cell-based, human. The conditions noted are these: #17 200 μM, #23 10 μM. As for the experimental part:
as §3, §4, §5

Assay [5] relates to DR5 and p21 in HCT116/p53(−/−) cells. Nature of the assay: Western blot of p53 target genes DR5 and p21 in HCT116/p53(-/-) cells. The class given is cell-based, human. The conditions noted are these: p53-null HCT116 cells, 16 hours, doses per compound in FIG. 2B. As for the experimental part: as §6, §1
A number of selected compounds was further tested on HCT116/p53^−/− cells to verify the possibility of induction of p53 target gene expression in the absence of p53. […] The importance of this observation is in establishing that it is possible to identify small molecules with the potential to induce p53 target gene expression in p53-deficient cells.

The subject of assay [6] is HCT116/p53(−/−)/PG13 cells. Put plainly: p53 transcriptional activity, PG13 reporter, HCT116/p53(-/-)/PG13 cells. Format: cell-based, human. The conditions noted are these: p53-null HCT116, 16 h, bioluminescence. As for the experimental part: Cells were treated by the indicated compounds at progressive 1:2 serial dilutions for 16 h, and the luciferase activities were detected by bioluminescence imaging. Fold induction was calculated by comparing to the nontreated cells;

For assay [7], the system named is p73 in HCT116/p53^−/− cells. Nature of the assay: Effect of p73 knockdown (si-p73 retrovirus) on compound-induced p53-responsive transcriptional activity. Format: cell-based, human. The conditions noted are these: retrovirus mediated si-p73, HCT116/p53^−/− cells, FIG. 5D. The method, then: FIGS. 5A-5D show p53 transcriptional activity is induced in DLD1 xenografts and effects of knockdown of p73 by siRNA on drug-induced transcriptional activity. DLD1/PG13 cells were inoculated subcutaneously with 5 million cells. At 24 hours later mice were treated with selected compounds (100 mg/kg for #1, 50 mg/kg for #14 and #17, and 10 mg/kg for #23), and subsequently bioluminescence imaging was carried out after 16 hours. Two weeks later, tumor masses were weighed. A, bioluminescence imaging of p53 transcriptional activity induced in vivo. B, calculated fold-induction of p53 transcriptional activity. C, inhibition of tumor growth by selected compounds. D, effects of si-TAp73 on the transcriptional activity induced by selected compounds;
pBS/U6 vector containing TAp73 RNAi were kindly provided by Leif W. Ellisen (20), Harvard Medical School, from which the expression cassette was removed and recombined to pSIREN-RetroQ (Clontech Laboratories, Inc. Mountain View, Calif.), which was reconstructed to express a blasticidin-resistant marker.
The questioned whether the p53 family member p73 is involved in the p53-responsive transcriptional activity induced by the compounds identified was then tested. p63, the other p53 family member, was not tested, because the TA form of p63 is rarely expressed in malignant and normal tissues except for germ cells of the ovary and testis.

For assay [8], the system named is γH2AX. Put plainly: γH2AX test (DNA damage signaling). Format: cell-based. The conditions noted are these: after treatment.

“Also recorded” adds a separate entry of the source.

As to `CO[C@H]1[C@@H](O)[C@@H](C)O[C@H](O[C@H]2[C@H](Oc3cccc4c(O)c5c(=O)oc6ccc(C)c7c(=O)oc(c34)c5c67)O[C@H](C)[C@H](O)[C@@H]2O)[C@@H]1O` [#1], the p53 protein expression result in assay [1] is reported as “increase p53 expression; also recorded: significantly increased p53 protein levels”. For the same compound, the “sub-G1 peak (apoptosis)” value in assay [2] and in assay [4] was “induced a sub-G1 peak characteristic of apoptosis” in each case. The “expression of p53 targets DR5 and p21 proteins” value in assay [3] was “increased expression of DR5 and p21 proteins”. Moreover, the “DR5 and p21 expression (p53 target genes)” value (from here on “DR5 and p21 expression”) in assay [5] is “increasing expression of the p53 target genes DR5 and p21; also recorded: strongly induce p53 target gene expression”. For the same compound, the “p53 transcriptional activity (reporter assay response)” value (“p53 transcriptional activity” for short) in assay [6] is listed as “stronger responses in the reporter assays”. In assay [7], the “compound-induced p53-responsive transcriptional activity after knockdown of p73” value is given as “suppressed”. The γH2AX entry in assay [8] was “not”.

Consider `COc1cccc2c1C(=O)c1c(O)c3c(c(O)c1C2=O)CC(O)(/C(C)=N/O)CC3OC1CC(N)C(O)C(C)O1` (stereo not shown) [#14], for which the p53 protein expression result in assay [1] was “increase p53 expression; also recorded: significantly increased p53 protein levels”. Further, the “sub-G1 peak (apoptosis)” value in assay [2] and in assay [4] was “induced a sub-G1 peak characteristic of apoptosis” throughout. The “expression of p53 targets DR5 and p21 proteins” value in assay [3] was “increased expression of DR5 and p21 proteins”. Moreover, the “DR5 and p21 expression” value in assay [5] is “increasing expression of the p53 target genes DR5 and p21; also recorded: strongly induce p53 target gene expression”. Moreover, the “p53 transcriptional activity” value in assay [6] is on record as “stronger responses in the reporter assays”. The “compound-induced p53-responsive transcriptional activity after knockdown of p73” value in assay [7] is “suppressed”. In assay [8], the γH2AX entry is given as “positive”.

In the case of `COc1cccc2c1C(=N)c1c(O)c3c(c(O)c1C2=O)C[C@@](O)(C(C)=O)C[C@@H]3O[C@H]1C[C@H](N)[C@H](O)[C@H](C)O1` [#23], the p53 protein expression result in assay [1] is given as “increase p53 expression; also recorded: significantly increased p53 protein levels”. The “sub-G1 peak (apoptosis)” value in assay [2] and in assay [4] was “induced a sub-G1 peak characteristic of apoptosis” in each case. The “G1 arrest on apoptosis induction” value in assay [2] (p53-null HCT116 cells, compared with wild-type p53-expressing HCT116) is “greatly reduced G1 arrest”. Further, in assay [3], the “expression of p53 targets DR5 and p21 proteins” value is “increased expression of DR5 and p21 proteins”. Moreover, the “DR5 and p21 expression” value in assay [5] was “increasing expression of the p53 target genes DR5 and p21; also recorded: strongly induce p53 target gene expression”. In assay [6], the “p53 transcriptional activity” value is recorded as “stronger responses in the reporter assays”. For the same compound, the “compound-induced p53-responsive transcriptional activity after knockdown of p73” value in assay [7] is given as “suppressed”. In addition, the γH2AX entry in assay [8] was “positive”.
